Data as given in patent publication US11236049B2, “Amorphous and crystalline forms of IDO inhibitors” (BRISTOL-MYERS SQUIBB COMPANY, priority 2017, dated 2022).
Read-outs that look alike come from different tables or passages of the source. Each block holds one molecule with its values, some of them ahead of it.

Assays:
[1] = type: physicochemical
[2] = Solid state stability of Compound 1 free base Form 4; type: physicochemical
Text: The results of those experiments are in the table, below.

[3] = for AUC (Mean) / Dissolution Rate (Mean): 150 mg in 250 mL (0.60 mg/mL API equivalent), 37° C.
Protocol: Microdissolution Microdissolution experiments were conducted in a pIon μDiss Profiler microdissolution instrument (pION μDiss Profiler) with a fiber optic UV monitoring system, as follows: Probes: 2.5 mm probes (5 mm path length) Volume: 15 ml Stirring: 150 rpm Temperature: 37° C. […] The target doses were 150 mg in 250 mL (0.60 mg/mL API equivalent) in FaSSIF (pH 6.5) and FeSSIF (pH 5).

[4] = pH solubility of Compound 1 MSA Salt Form 1; type: physicochemical; conditions: 22 °C, aqueous buffer, thermodynamic from solid; from pH solubility profile of MSA Salt Form 1; read-out: Solubility for the free-base
Protocol: Measurements were taken using an Orion ATI Model 370 pH meter. […] To each vial was added 5 mL of various aqueous acidic and basic solutions. Each vial was stoppered and vortexed and sonicated to mix well. The pH of each sample was recorded. […] After 24 hours of stirring, the pH of each sample (as a suspension) was recorded. Suspensions were filtered with 0.2 micron Acrodisc syringe filters. The clear filtrates were collected and vortexed to mix well pH of each filtrated was recorded. pH of suspension and filtrate were nearly identical. A 1.0 mL aliquot of each of the filtrates 25-fold using 50% acetonitrile/50% Milli-Q water, q.w. each flask to 25 mL. […] Samples were assayed using the following HPLC method: Column: […] Mobile phase Solvent A: Water w/0.05% TFA • Solvent B: Acetonitrile w/0.05% TFA […] Column temperature: Ambient RT Detector Wavelength: 250 nm […] Working Concentration: […] Added 20 mL of 100% acetonitrile to the vial. Stoppered, vortexed, and sonicated the vial. […] Transferred the suspension to a 250 mL glass volumetric flask, and washed out the glass vial with 4×20 mL 50% acetonitrile/50% Milli-Q water, transferring each wash into the volumetric flask. All solids dissolved. Q.S. the volumetric flask to 250 mL final volume using 50% acetonitrile/50% Milli Q water, shake to give standard solution at 101.5 mcg/mL.

[5] = type: physicochemical; remark: listed apart in the source
Text: There was no evidence of form change, dehydration, or amorphous formation after 8 weeks. There was no change in TGA at 8 weeks in all samples.

[6] = 25° C./60% relative humidity, 4-week
[7] = 40° C./75% relative humidity (closed), 4-week
[8] = 40° C./75% relative humidity (open), 4-week
[9] = High intensity light (HIL), 4-week
[10] = solid state stress conditions tested

Area % ([2]; 25° C./60% relative humidity, 2-week): 99.78% Area %
Area % [2, 6]: 99.77% Area %
Area % ([2]; 40° C./75% relative humidity (closed), 2-week): 99.78% Area %
Area % [2, 7]: 99.71 Area %
Area % ([2]; 40° C./75% relative humidity (open), 2-week): 99.79% Area %
Area % [2, 8]: 98.46% Area %
Area % ([2]; 50° C., 2-week): 99.68% Area %
Area % ([2]; 50° C., 4-week): 99.74% Area %
Area % ([2]; High intensity light (HIL), 2-week): 99.77% Area %
Area % [2, 9]: 99.58% Area %
Area % ([2]; RT/RL (room temperature/room light), 2-week): 99.75% Area %
Area % ([2]; RT/RL (room temperature/room light), 4-week): 99.70% Area %
time chemically stable [2, 10]: at least 4 weeks
time for which no changes were observed [2, 10]: at least 2 weeks
Structure (SMILES): C[C@@H](C(=O)Nc1ccc(Cl)cc1)[C@H]1CC[C@@H](c2ccnc3ccc(F)cc32)CC1 [Compound 1 free base Form 4, (R)-N-(4-chlorophenyl)-2-((1S,4S)-4-(6-fluoroquinolin-4-yl)cyclohexyl)propanamide]
form change ([1]; melt/quench experiment, XRPD showed no evidence of crystalline material): resulted in a glass with a few fine, birefringent acicular particles

dissolution rate compared with Compound 1 MSA Salt Form 1 ([3]; Example 15, FaSSIF, statistically significant difference): slightly faster
AUC (Mean) ([3]; FaSSIF (pH 6.5)): 14315.281 µg·min/mL
Dissolution Rate (Mean) ([3]; FaSSIF (pH 6.5)): 4.449 µg/mL/min
AUC (Mean) ([3]; FeSSIF (pH 5)): 50014.687 µg·min/mL
Dissolution Rate (Mean) ([3]; FeSSIF (pH 5)): 47.996 µg/mL/min
Peak Solubility (Mean) ([3]; pH 5): 287.395 µg/mL
Peak Solubility (Mean) ([3]; pH 6.5): 91.325 µg/mL
Structure (SMILES): CS(=O)(=O)O.C[C@@H](C(=O)Nc1ccc(Cl)cc1)[C@H]1CC[C@@H](c2ccnc3ccc(F)cc32)CC1.O [Compound 1 MSA salt monohydrate Form 2, (R)-N-(4-chlorophenyl)-2-((1S,4S)-4-(6-fluoroquinolin-4-yl)cyclohexyl)propanamide methanesulfonic acid salt monohydrate]
form change ([1]; stressing at 75% relative humidity at 40 C for 6 days): converts to Compound 1 MSA Salt Form 1 and Compound 1 MSA Salt monohydrate form 2

form change on heating ([1]; heated between 67° C. and 150° C.): No crystallization was observed
Structure (SMILES): C[C@@H](C(=O)Nc1ccc(Cl)cc1)[C@H]1CC[C@@H](c2ccnc3ccc(F)cc32)CC1 [Compound 1 Free Base Amorphous, (R)-N-(4-chlorophenyl)-2-((1S,4S)-4-(6-fluoroquinolin-4-yl)cyclohexyl)propanamide]

solubility at 24 h [4]: 1 to 2 µg/mL
Structure (SMILES): C[C@@H](C(=O)Nc1ccc(Cl)cc1)[C@H]1CC[C@@H](c2ccnc3ccc(F)cc32)CC1 [Compound 1, (R)-N-(4-chlorophenyl)-2-((1S,4S)-4-(6-fluoroquinolin-4-yl)cyclohexyl)propanamide]

form change on heating ([1]; heated for ˜2 hours): no form change by XRPD
behaviour on heating ([1]; heating to ˜125° C.): liquefy
form change on dehydration ([1]; overnight hold at 0% RH): converted to an unstable form
time chemically stable [5]: at least 13.5 weeks
Area % [5, 6]: 99.90% Area %
Area % ([5]; 25° C./60% relative humidity, 8-week): 99.90% Area %
Area % ([5]; 25° C./60% relative humidity, 13.5 week): 99.73% Area %
Area % [5, 7]: 99.90% Area %
Area % ([5]; 40° C./75% relative humidity (closed), 8-week): 99.90% Area %
Area % ([5]; 40° C./75% relative humidity (closed), 13.5 week): 99.62% Area %
Area % [5, 8]: 99.90% Area %
Area % ([5]; 40° C./75% relative humidity (open), 8-week): 99.90% Area %
Area % ([5]; 40° C./75% relative humidity (open), 13.5 week): 99.63% Area %
Area % ([5]; 50° C., 4-week): 99.90% Area %
Area % ([5]; 50° C., 8-week): 99.04% Area %
Area % ([5]; 50° C., 13.5 week): 99.79% Area %
Area % [5, 9]: 99.1% Area %
Area % ([5]; RT/RL (room temperature, room light), 4-week): 99.90% Area %
Area % ([5]; RT/RL (room temperature, room light), 8-week): 99.90% Area %
Area % ([5]; RT/RL (room temperature, room light), 13.5 week): 99.78% Area %
evidence of form change, dehydration, or amorphous formation ([5]; after 8 weeks): no evidence
changes in PXRD ([5]; at 4 weeks or 8 weeks in all samples): No changes
change in TGA ([5]; at 8 weeks in all samples): no change
rate of dissolution ([3]; Example 16, FeSSIF): 23 µg/mL/min
Structure (SMILES): C[C@@H](C(=O)Nc1ccc(Cl)cc1)C1CCC(c2ccnc3ccc(F)cc23)CC1.O (stereo partly drawn) [Compound 1 Free Base monohydrate Form 2, (R)-N-(4-chlorophenyl)-2-((1S,4S)-4-(6-fluoroquinolin-4-yl)cyclohexyl)propanamide monohydrate]
form change on heating ([1]; ˜79 to 80° C. for 1 day or ˜75° C. under nitrogen gas flow for ˜20 hours): partial conversion to other crystalline forms

form change ([1]; heat stressing at 60° C. after 9 days): converted to Compound 1 MSA Salt Form 1
Structure (SMILES): CS(=O)(=O)O.C[C@@H](C(=O)Nc1ccc(Cl)cc1)[C@H]1CC[C@@H](c2ccnc3ccc(F)cc32)CC1 [Amorphous Compound 1 MSA, (R)-N-(4-chlorophenyl)-2-((1S,4S)-4-(6-fluoroquinolin-4-yl)cyclohexyl)propanamide methanesulfonate]
form change ([1]; heat stressing at 60° C. (Example 8A)): recrystallized to Compound 1 MSA Salt Form 1
